Reference: patent publication US9018256B2, “Feed additive for animals of P-thymol, salt derivative or ester derivative thereof” (priority 2011, dated 2015)
Where two headings read alike, the source gives them in different places.

How the values were obtained:
staphylococcus aureus = assay: In-vitro antibacterial activity, tube double dilution method; assay type: cell-based
clostridium perfringens = assay type: cell-based
escherichia coli = assay: In-vitro antibacterial activity, tube double dilution method; assay type: cell-based
salmonella gallinarum = assay type: cell-based
salmonella bacillus = assay type: cell-based
salmonella choleraesuis = assay: In-vitro antibacterial activity, tube double dilution method; assay type: cell-based
[1] = test system: Lingnan yellow big chicken; assay: Comparison of chicken growth promoting effects of p-thymol, thymol and carvacrol; assay type: in vivo; details: 100 ppm in feed, 1 to 21-day-old chickens; for Total Feed Consumption / Total Weight Gain: 50 per group
[2] = test system: three-way cross weaned pigs; assay: Growth promoting effect test on weaned pigs; assay type: in vivo, pig; details: 100 ppm in feed, 30 days; for Total Feed Consumption / Total Weight Gain: 30 per group
Chemy Valley ducks = assay: Growth promoting effect test on ducks; assay type: in vivo, duck; details: 100 ppm in feed, 1 to 46-day-old ducks; for Total Feed Consumption / Total Weight Gain: 100 per group
black carps = assay: Application in aquatic feed (black carp growth test); assay type: in vivo; details: for average weight gain improved compared with the control group / feed conversion rate (FCR) / feed conversion rate reduced compared with the control group / final weight / weight gain: 100 ppm in feed, black carps, 8 weeks
[3] = Volatility comparison under reduced-pressure drying; details: for weight remained after reduced-pressure drying: initial weight 10.0 g
[4] = Changes in chicken complete formula feed during preservation (gas chromatography); details: 25-30° C., initial 100 ppm
Wistar rats = assay: Rat oral LD50 measurement (improved Karber's method); assay type: in vivo
rats = details: rat, in vivo; cited from earlier work
[5] = clostridium perfringens CAU0591
[6] = clostridium perfringens CAU0795
[7] = clostridium perfringens CAU0855
[8] = clostridium perfringens CAU0859
[9] = clostridium perfringens HNAU160
[10] = clostridium perfringens HNAU166
[11] = salmonella choleraesuis CEC19940141
[12] = salmonella choleraesuis CEC19940146
[13] = rat, oral, preliminary experiment

## Cc1ccc(C(C)C)c(O)c1 [thymol, 5-methyl-2-isopropyl-phenol]
Staphylococcus aureus; s. aureus CAU0804
  Inhibiting Activity (minimum bacteria inhibiting concentration): 500 µg/mL
Staphylococcus aureus; s. aureus CAU0810
  Inhibiting Activity (minimum bacteria inhibiting concentration): 125 µg/mL
Staphylococcus aureus; s. aureus CAU0837
  Inhibiting Activity (minimum bacteria inhibiting concentration): 250 µg/mL
Staphylococcus aureus; s. aureus CAU0866
  Inhibiting Activity (minimum bacteria inhibiting concentration): 250 µg/mL
Staphylococcus aureus; s. aureus CAU0868
  Inhibiting Activity (minimum bacteria inhibiting concentration): 250 µg/mL
Staphylococcus aureus; s. aureus CAU0869
  Inhibiting Activity (minimum bacteria inhibiting concentration): 125 µg/mL
Staphylococcus aureus; s. aureus CAU0871
  Inhibiting Activity (minimum bacteria inhibiting concentration): 250 µg/mL
Clostridium perfringens; [5]
  Inhibiting Activity (minimum bacteria inhibiting concentration): 250 µg/mL
Clostridium perfringens; [6]
  Inhibiting Activity (minimum bacteria inhibiting concentration): 250 µg/mL
Clostridium perfringens; [7]
  Inhibiting Activity (minimum bacteria inhibiting concentration): 250 µg/mL
Clostridium perfringens; [8]
  Inhibiting Activity (minimum bacteria inhibiting concentration): 250 µg/mL
Clostridium perfringens; [9]
  Inhibiting Activity (minimum bacteria inhibiting concentration): 500 µg/mL
Clostridium perfringens; [10]
  Inhibiting Activity (minimum bacteria inhibiting concentration): 250 µg/mL
Escherichia coli; escherichia coli CAU0020
  Inhibiting Activity (minimum bacteria inhibiting concentration): 250 µg/mL
Escherichia coli; escherichia coli CAU0053
  Inhibiting Activity (minimum bacteria inhibiting concentration): 250 µg/mL
Escherichia coli; escherichia coli CAU0147
  Inhibiting Activity (minimum bacteria inhibiting concentration): 250 µg/mL
Escherichia coli; escherichia coli CAU0159
  Inhibiting Activity (minimum bacteria inhibiting concentration): 250 µg/mL
Escherichia coli; escherichia coli CAU0195
  Inhibiting Activity (minimum bacteria inhibiting concentration): 250 µg/mL
Salmonella gallinarum; salmonella gallinarum CAU0205
  Inhibiting Activity (minimum bacteria inhibiting concentration): 500 µg/mL
Salmonella gallinarum; salmonella gallinarum CAU0206
  Inhibiting Activity (minimum bacteria inhibiting concentration): 250 µg/mL
Salmonella gallinarum; salmonella gallinarum QAU0399
  Inhibiting Activity (minimum bacteria inhibiting concentration): 500 µg/mL
Salmonella bacillus
  Inhibiting Activity (minimum bacteria inhibiting concentration): 250 µg/mL
Salmonella choleraesuis; [11]
  Inhibiting Activity (minimum bacteria inhibiting concentration): 250 µg/mL
Salmonella choleraesuis; [12]
  Inhibiting Activity (minimum bacteria inhibiting concentration): 250 µg/mL
[1]
  Average Weight Gain: 334.8 g
  Feed Conversion Rate: 1.756
  Survival Rate: 100%
  feed conversion rate reduced compared with the control group: 0.026
  Total Feed Consumption: 29.40 kg
  Total Weight Gain: 16.74 kg
[2]
  Feed Conversion Rate: 2.324
  Survival Rate: 100%
  feed conversion rate reduced compared with the control group: 0.097
  Total Feed Consumption: 796.3 kg
  Total Weight Gain: 342.6 kg
Chemy Valley ducks
  Feed Conversion Rate: 2.726
  Survival Rate: 100%
  feed conversion rate reduced compared with the control group: 0.062
  Total Feed Consumption: 940.7 kg
  Total Weight Gain: 345.1 kg
Black carps
  average weight gain improved compared with the control group: 4.53%
  feed conversion rate (FCR): 1.44 ± 0.08
  feed conversion rate reduced compared with the control group: 3.36%
  final weight: 601.58 ± 28.02 g
  weight gain: 139.29 ± 7.37%
[3]; 50° C., 1 hour
  weight remained after reduced-pressure drying: 6.12 g
[3]; 70° C., 1 hour
  weight remained after reduced-pressure drying: 1.02 g
[3]; 90° C., 1 hour
  weight remained after reduced-pressure drying: 0 g
[3]; reduced-pressure drying 70° C., 1 hour
  volatilized part: 89.8%
[4]; 1 day
  concentration measured after extraction from the complete formula feed: 100.4 ppm
[4]; 15 days
  concentration measured after extraction from the complete formula feed: 90.2 ppm
[4]; 30 days
  concentration measured after extraction from the complete formula feed: 78.9 ppm
[4]; 45 days
  concentration measured after extraction from the complete formula feed: 63.7 ppm
[4]; 60 days
  concentration measured after extraction from the complete formula feed: 49.7 ppm

## Cc1ccc(C(C)C)cc1O [carvacrol, 2-methyl-5-isopropyl-phenol]
Wistar rats; rat oral LD50 grading
  Toxicity Judgment: relative
Wistar rats; rat, oral, observed 7 days
  LD50: 6400 mg/kg weight
Wistar rats; [13]
  Dm (dose causing 100% death): 1800 mg/kg weight
  Dn (dose causing 0% death): 400 mg/kg weight
Staphylococcus aureus; s. aureus CAU0804
  Inhibiting Activity (minimum bacteria inhibiting concentration): 500 µg/mL
Staphylococcus aureus; s. aureus CAU0810
  Inhibiting Activity (minimum bacteria inhibiting concentration): 250 µg/mL
Staphylococcus aureus; s. aureus CAU0837
  Inhibiting Activity (minimum bacteria inhibiting concentration): 250 µg/mL
Staphylococcus aureus; s. aureus CAU0866
  Inhibiting Activity (minimum bacteria inhibiting concentration): 250 µg/mL
Staphylococcus aureus; s. aureus CAU0868
  Inhibiting Activity (minimum bacteria inhibiting concentration): 250 µg/mL
Staphylococcus aureus; s. aureus CAU0869
  Inhibiting Activity (minimum bacteria inhibiting concentration): 250 µg/mL
Staphylococcus aureus; s. aureus CAU0871
  Inhibiting Activity (minimum bacteria inhibiting concentration): 250 µg/mL
Clostridium perfringens; [5]
  Inhibiting Activity (minimum bacteria inhibiting concentration): 500 µg/mL
Clostridium perfringens; [6]
  Inhibiting Activity (minimum bacteria inhibiting concentration): 250 µg/mL
Clostridium perfringens; [7]
  Inhibiting Activity (minimum bacteria inhibiting concentration): 500 µg/mL
Clostridium perfringens; [8]
  Inhibiting Activity (minimum bacteria inhibiting concentration): 500 µg/mL
Clostridium perfringens; [9]
  Inhibiting Activity (minimum bacteria inhibiting concentration): 500 µg/mL
Clostridium perfringens; [10]
  Inhibiting Activity (minimum bacteria inhibiting concentration): 250 µg/mL
Escherichia coli; escherichia coli CAU0020
  Inhibiting Activity (minimum bacteria inhibiting concentration): 250 µg/mL
Escherichia coli; escherichia coli CAU0053
  Inhibiting Activity (minimum bacteria inhibiting concentration): 500 µg/mL
Escherichia coli; escherichia coli CAU0147
  Inhibiting Activity (minimum bacteria inhibiting concentration): 250 µg/mL
Escherichia coli; escherichia coli CAU0159
  Inhibiting Activity (minimum bacteria inhibiting concentration): 250 µg/mL
Escherichia coli; escherichia coli CAU0195
  Inhibiting Activity (minimum bacteria inhibiting concentration): 500 µg/mL
Salmonella gallinarum; salmonella gallinarum CAU0205
  Inhibiting Activity (minimum bacteria inhibiting concentration): 250 µg/mL
Salmonella gallinarum; salmonella gallinarum CAU0206
  Inhibiting Activity (minimum bacteria inhibiting concentration): 500 µg/mL
Salmonella gallinarum; salmonella gallinarum QAU0399
  Inhibiting Activity (minimum bacteria inhibiting concentration): 500 µg/mL
Salmonella bacillus
  Inhibiting Activity (minimum bacteria inhibiting concentration): 250 µg/mL
Salmonella choleraesuis; [11]
  Inhibiting Activity (minimum bacteria inhibiting concentration): 500 µg/mL
Salmonella choleraesuis; [12]
  Inhibiting Activity (minimum bacteria inhibiting concentration): 250 µg/mL
[1]
  Average Weight Gain: 332.9 g
  Feed Conversion Rate: 1.761
  Survival Rate: 100%
  feed conversion rate reduced compared with the control group: 0.021
  relative weight gain rate improved compared with the control group: 3.19%
  Total Feed Consumption: 29.32 kg
  Total Weight Gain: 16.65 kg
[1]; control = 100
  Relative Weight Gain Rate: 103.19%
[2]
  Feed Conversion Rate: 2.336
  Survival Rate: 100%
  feed conversion rate reduced compared with the control group: 0.085
  relative weight gain rate improved compared with the control group: 4.69%
  Total Feed Consumption: 798.1 kg
  Total Weight Gain: 341.7 kg
[2]; control = 100
  Relative Weight Gain Rate: 104.69%
Chemy Valley ducks
  Feed Conversion Rate: 2.739
  Survival Rate: 100%
  feed conversion rate reduced compared with the control group: 0.049
  relative weight gain rate improved compared with the control group: 2.51%
  Total Feed Consumption: 928.3 kg
  Total Weight Gain: 338.9 kg
Chemy Valley ducks; control = 100
  Relative Weight Gain Rate: 102.51%
Black carps
  average weight gain improved compared with the control group: 3.52%
  feed conversion rate (FCR): 1.45 ± 0.06
  feed conversion rate reduced compared with the control group: 2.68%
  final weight: 598.08 ± 27.11 g
  weight gain: 138.0 ± 7.78%
Black carps; in vivo
  survival rate (SR): 100%
rats
  oral median lethal dose (LD50) of rats: 810 mg/kg weight
[3]; 50° C., 1 hour
  weight remained after reduced-pressure drying: 4.84 g
[3]; 70° C., 1 hour
  weight remained after reduced-pressure drying: 0 g
[3]; 90° C., 1 hour
  weight remained after reduced-pressure drying: 0 g
[3]; reduced-pressure drying within 1 hour at 70° C. and over
  volatilization (in words): completely volatilized
[4]; 1 day
  concentration measured after extraction from the complete formula feed: 99.6 ppm
[4]; 15 days
  concentration measured after extraction from the complete formula feed: 87.7 ppm
[4]; 30 days
  concentration measured after extraction from the complete formula feed: 73.1 ppm
[4]; 45 days
  concentration measured after extraction from the complete formula feed: 58.5 ppm
[4]; 60 days
  concentration measured after extraction from the complete formula feed: 42.6 ppm
